From ChEMBL document CHEMBL3991601, “The target landscape of clinical kinase drugs” (Science, 2017)
Active and inactive are the calls of the source.

Key:
[1] = target: T1, Serine/threonine-protein kinase Chk1 (Homo sapiens, UniProt O14757)
T1 sequence (O14757 whole entry): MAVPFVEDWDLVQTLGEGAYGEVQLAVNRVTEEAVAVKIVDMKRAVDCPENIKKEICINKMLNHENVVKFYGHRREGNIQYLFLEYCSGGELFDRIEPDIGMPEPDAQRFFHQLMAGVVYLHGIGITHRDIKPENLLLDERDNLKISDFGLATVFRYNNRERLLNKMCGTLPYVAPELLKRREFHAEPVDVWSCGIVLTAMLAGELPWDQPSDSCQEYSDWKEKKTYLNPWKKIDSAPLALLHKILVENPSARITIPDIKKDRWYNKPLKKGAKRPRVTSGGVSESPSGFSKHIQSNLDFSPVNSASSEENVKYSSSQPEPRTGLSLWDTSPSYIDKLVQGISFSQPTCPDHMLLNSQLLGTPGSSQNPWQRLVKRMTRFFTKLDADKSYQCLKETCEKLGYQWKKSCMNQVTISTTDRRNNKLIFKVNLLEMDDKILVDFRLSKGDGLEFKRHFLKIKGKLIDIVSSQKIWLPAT

[2] = target: DnaJ homolog subfamily A member 1 (Homo sapiens, UniProt P31689)
Sequence of DnaJ homolog subfamily A member 1 (P31689 whole entry): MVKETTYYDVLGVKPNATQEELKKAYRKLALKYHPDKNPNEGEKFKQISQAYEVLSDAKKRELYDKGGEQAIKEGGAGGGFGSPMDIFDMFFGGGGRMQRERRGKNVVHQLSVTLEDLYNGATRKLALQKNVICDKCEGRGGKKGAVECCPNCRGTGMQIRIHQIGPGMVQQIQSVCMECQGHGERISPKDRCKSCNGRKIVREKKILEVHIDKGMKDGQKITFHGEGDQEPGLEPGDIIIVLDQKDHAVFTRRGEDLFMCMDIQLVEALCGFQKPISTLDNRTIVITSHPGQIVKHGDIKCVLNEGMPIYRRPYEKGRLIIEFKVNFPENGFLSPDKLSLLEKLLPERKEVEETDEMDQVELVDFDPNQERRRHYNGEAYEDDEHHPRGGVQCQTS

Ephrin type-B receptor 6 = target: T2, Ephrin type-B receptor 6 (Homo sapiens, UniProt O15197)
T2 sequence (O15197 whole entry): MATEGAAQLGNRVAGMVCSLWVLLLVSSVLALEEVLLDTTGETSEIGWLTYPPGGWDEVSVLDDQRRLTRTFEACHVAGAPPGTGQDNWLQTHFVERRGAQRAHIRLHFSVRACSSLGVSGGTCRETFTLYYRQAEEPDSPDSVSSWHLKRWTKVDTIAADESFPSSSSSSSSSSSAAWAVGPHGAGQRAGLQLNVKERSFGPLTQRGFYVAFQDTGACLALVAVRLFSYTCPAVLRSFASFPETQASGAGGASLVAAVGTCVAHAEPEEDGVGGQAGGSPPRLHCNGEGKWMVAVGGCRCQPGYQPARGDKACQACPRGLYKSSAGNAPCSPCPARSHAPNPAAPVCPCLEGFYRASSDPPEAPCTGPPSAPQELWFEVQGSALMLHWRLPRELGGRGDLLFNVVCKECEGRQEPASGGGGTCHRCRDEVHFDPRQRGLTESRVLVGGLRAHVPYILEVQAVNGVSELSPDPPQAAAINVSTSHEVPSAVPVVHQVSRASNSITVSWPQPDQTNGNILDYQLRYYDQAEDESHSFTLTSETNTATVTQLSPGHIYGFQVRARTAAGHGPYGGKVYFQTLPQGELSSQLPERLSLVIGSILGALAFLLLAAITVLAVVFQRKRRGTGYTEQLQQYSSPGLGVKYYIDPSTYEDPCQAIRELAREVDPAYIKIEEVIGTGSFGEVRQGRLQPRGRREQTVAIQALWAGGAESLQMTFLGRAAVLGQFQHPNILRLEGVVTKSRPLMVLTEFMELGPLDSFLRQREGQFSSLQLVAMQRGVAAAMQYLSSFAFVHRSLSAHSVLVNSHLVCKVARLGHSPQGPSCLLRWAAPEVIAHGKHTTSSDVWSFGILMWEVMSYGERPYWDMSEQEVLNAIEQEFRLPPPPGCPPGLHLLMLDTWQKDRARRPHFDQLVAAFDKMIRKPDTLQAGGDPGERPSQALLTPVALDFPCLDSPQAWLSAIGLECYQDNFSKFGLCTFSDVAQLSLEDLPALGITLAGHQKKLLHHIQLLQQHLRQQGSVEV

[3] = target: Serine/threonine-protein kinase/endoribonuclease IRE2 (Homo sapiens, UniProt Q76MJ5)
Sequence of Serine/threonine-protein kinase/endoribonuclease IRE2 (Q76MJ5 whole entry): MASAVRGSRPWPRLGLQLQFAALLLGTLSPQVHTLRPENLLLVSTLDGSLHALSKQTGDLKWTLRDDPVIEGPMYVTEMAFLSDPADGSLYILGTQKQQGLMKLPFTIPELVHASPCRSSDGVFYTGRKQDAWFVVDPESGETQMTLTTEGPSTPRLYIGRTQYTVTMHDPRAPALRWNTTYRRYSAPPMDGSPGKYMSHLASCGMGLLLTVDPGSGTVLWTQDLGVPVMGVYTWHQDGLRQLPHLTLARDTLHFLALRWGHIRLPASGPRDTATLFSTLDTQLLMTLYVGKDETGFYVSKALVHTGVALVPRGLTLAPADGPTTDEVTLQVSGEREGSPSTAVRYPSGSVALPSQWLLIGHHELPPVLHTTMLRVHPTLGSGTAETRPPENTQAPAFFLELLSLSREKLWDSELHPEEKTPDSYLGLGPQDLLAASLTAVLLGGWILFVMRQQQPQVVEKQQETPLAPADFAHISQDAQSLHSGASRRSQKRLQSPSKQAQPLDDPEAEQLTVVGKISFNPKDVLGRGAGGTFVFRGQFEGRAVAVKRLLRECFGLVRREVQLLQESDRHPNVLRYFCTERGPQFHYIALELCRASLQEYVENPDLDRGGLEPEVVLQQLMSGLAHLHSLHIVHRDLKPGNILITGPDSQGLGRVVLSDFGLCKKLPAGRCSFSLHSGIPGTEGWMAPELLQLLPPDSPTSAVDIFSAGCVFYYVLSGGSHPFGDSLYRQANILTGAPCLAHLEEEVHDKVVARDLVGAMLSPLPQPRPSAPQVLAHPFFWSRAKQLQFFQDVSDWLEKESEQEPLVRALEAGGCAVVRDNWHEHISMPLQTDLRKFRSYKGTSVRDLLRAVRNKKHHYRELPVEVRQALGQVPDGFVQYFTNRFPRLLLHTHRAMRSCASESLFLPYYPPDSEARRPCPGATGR

[4] = target: cAMP-dependent protein kinase type II-alpha regulatory subunit (Homo sapiens, UniProt P13861)
Sequence of cAMP-dependent protein kinase type II-alpha regulatory subunit (P13861 whole entry): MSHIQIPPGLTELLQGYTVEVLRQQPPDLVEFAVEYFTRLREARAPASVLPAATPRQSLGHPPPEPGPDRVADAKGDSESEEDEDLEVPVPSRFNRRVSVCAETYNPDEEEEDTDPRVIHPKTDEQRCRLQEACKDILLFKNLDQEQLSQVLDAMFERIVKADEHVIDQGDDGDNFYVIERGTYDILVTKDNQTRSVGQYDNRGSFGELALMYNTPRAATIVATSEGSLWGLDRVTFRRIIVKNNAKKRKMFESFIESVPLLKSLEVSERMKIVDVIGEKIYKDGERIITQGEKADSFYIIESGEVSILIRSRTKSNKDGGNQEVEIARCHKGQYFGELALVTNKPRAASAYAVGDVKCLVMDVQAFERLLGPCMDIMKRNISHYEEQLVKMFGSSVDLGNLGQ

[5] = target: 26S proteasome regulatory subunit 6B (Homo sapiens, UniProt P43686)
Sequence of 26S proteasome regulatory subunit 6B (P43686 whole entry): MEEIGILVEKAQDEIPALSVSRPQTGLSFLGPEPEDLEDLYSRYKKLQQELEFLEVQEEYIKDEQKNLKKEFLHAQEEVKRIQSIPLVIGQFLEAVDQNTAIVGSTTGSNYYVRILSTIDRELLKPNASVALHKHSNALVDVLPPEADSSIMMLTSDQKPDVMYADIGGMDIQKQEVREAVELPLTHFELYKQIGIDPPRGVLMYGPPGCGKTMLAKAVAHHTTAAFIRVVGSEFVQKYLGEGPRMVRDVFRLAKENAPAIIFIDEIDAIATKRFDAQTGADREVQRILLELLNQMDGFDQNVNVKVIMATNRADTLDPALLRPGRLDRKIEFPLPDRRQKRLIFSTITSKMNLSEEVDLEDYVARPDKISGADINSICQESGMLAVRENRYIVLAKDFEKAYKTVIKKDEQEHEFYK

[6] = target: Tyrosine-protein kinase SYK (Homo sapiens, UniProt P43405)
Also: in the data inactive means no Kd found up to 30 µM.

Row | SMILES | Kd [1] | Kd [2] | Kd (Ephrin type-B receptor 6) | Kd [3] | Kd [4] | Kd [5] | Kd [6]
1 | C=CCN(/C=C1/C(=O)O[C@H](COC)[C@@]2(C)C1=C(O)C(=O)C1=C2[C@H](OC(C)=O)C[C@]2(C)C(=O)CC[C@@H]12)CC=C [SONOLISIB] | > 30 µM (inactive) | > 30 µM (inactive) | > 30 µM (inactive) | > 30 µM (inactive) | > 30 µM (inactive) | > 30 µM (inactive) | > 30 µM (inactive)
2 | CC(C)(O)CC(=O)NCCn1ccc2ncnc(Nc3ccc(Oc4cccc(C(F)(F)F)c4)c(Cl)c3)c21 [TAK-285] | > 30 µM (inactive) | > 30 µM (inactive) | 1.85 µM | > 30 µM (inactive) | > 30 µM (inactive) | > 30 µM (inactive) | > 30 µM (inactive)
3 | C=CC(=O)Nc1cc(Nc2nccc(-c3cn(C)c4ccccc34)n2)c(OC)cc1N(C)CCN(C)C [OSIMERTINIB] | > 30 µM (inactive) | > 30 µM (inactive) | > 30 µM (inactive) | > 30 µM (inactive) | > 30 µM (inactive) | > 30 µM (inactive) | > 30 µM (inactive)
4 | O=C(Nc1ccc(OC(F)(F)F)cc1)c1sccc1NCc1ccnc2ccccc12 [OSI-930] | > 30 µM (inactive) | > 30 µM (inactive) | > 30 µM (inactive) | > 30 µM (inactive) | > 30 µM (inactive) | > 30 µM (inactive) | > 30 µM (inactive)
5 | Cc1c(Cn2c(C)nc3c(C(=O)O)cc(N4CCOCC4)cc32)cccc1C(F)(F)F [GSK-2636771] | > 30 µM (inactive) | > 30 µM (inactive) | > 30 µM (inactive) | > 30 µM (inactive) | > 30 µM (inactive) | > 30 µM (inactive) | > 30 µM (inactive)
6 | COc1ccc2c(OCc3nnc4ccc(-c5ccccc5)nn34)ccnc2c1 [AMG-208] | > 30 µM (inactive) | > 30 µM (inactive) | > 30 µM (inactive) | > 30 µM (inactive) | > 30 µM (inactive) | > 30 µM (inactive) | > 30 µM (inactive)
7 | O=C(NC[C@H](O)CO)c1ccncc1Nc1ccc(I)cc1F [PIMASERTIB] | > 30 µM (inactive) | > 30 µM (inactive) | > 30 µM (inactive) | > 30 µM (inactive) | > 30 µM (inactive) | > 30 µM (inactive) | > 30 µM (inactive)

Now from value to compound:

Row | Kd [1] | Kd [2] | Kd (Ephrin type-B receptor 6) | Kd [3] | Kd [4] | Kd [5] | Kd [6] | SMILES
8 | > 30 µM (inactive) | > 30 µM (inactive) | > 30 µM (inactive) | > 30 µM (inactive) | > 30 µM (inactive) | > 30 µM (inactive) | > 30 µM (inactive) | COc1cc2ncnc3c2cc1OCCCCCN(C)Cc1ccc(Br)cc1N3 [JNJ-26483327]
9 | 6.17 µM (active) | > 30 µM (inactive) | > 30 µM (inactive) | > 30 µM (inactive) | > 30 µM (inactive) | > 30 µM (inactive) | > 30 µM (inactive) | O=C(O)c1ccc2c(c1)nc(Nc1cccc(Cl)c1)c1ccncc12 [SILMITASERTIB]
10 | > 30 µM (inactive) | > 30 µM (inactive) | > 30 µM (inactive) | > 30 µM (inactive) | > 30 µM (inactive) | > 30 µM (inactive) | > 30 µM (inactive) | COc1cc2ncnc(Nc3ccc(F)c(Cl)c3)c2cc1NC(=O)/C=C/CN1CCCCC1 [DACOMITINIB ANHYDROUS]
11 | > 30 µM (inactive) | > 30 µM (inactive) | > 30 µM (inactive) | > 30 µM (inactive) | > 30 µM (inactive) | > 30 µM (inactive) | > 30 µM (inactive) | C#Cc1cccc(Nc2ncnc3cc4c(cc23)OCCOCCOCCO4)c1 [ICOTINIB]
